Key:
Human LBAT = target: T1, Human LBAT (Homo sapiens, UniProt Q14973); assay: LBAT (h/m) assay, human LBAT-overexpressing cells, 3H-taurocholic acid uptake; assay type: cell-based; settings: 0.3 μM 3H-taurocholic acid and 7.5 μM cold taurocholic acid, 20 minutes, read-out: hLBAT IC50
T1 construct: expressed in transfected cells; kept under Geneticin selection
T1 sequence (Q14973 1-349): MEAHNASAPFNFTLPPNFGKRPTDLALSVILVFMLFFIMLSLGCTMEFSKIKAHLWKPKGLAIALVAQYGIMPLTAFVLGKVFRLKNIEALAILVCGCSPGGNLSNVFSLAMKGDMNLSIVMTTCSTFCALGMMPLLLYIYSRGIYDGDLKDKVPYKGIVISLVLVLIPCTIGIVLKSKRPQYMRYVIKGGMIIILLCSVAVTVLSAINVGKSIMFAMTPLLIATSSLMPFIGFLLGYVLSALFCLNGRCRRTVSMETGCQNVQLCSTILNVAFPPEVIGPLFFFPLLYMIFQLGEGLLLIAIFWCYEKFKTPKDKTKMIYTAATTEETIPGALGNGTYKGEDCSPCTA
Procedure: LBAT (h/m) Assay Protocol
20,000 cells (Human or Mouse LBAT-overexpressing cells) were seeded in 96-wells plate (Corning CLS3809) in 100 μL MEM-alpha medium (Gibco 12571-063) supplemented with 10% FBS (Gibco 10438026) containing Geneticin (Gibco 10131-027) (1 mg/mL) and incubated at 37° C. in 5% CO2 for 24 hours. After incubation, media was decanted from the wells and cells were washed two times with 300 μL of basal MEM-alpha medium (FBS-free). After decanting basal MEM-alpha medium each time, plates were tapped against paper towel to ensure maximum removal of residual media.
For human LBAT, incubation mix was prepared by adding test inhibitor dilutions (3-fold serial dilution in DMSO (Sigma D2650), 10 points) in MEM-alpha (without FBS) containing 0.3 μM 3H-taurocholic acid (ARC ART-1368) and 7.5 μM cold taurocholic acid (Sigma T4009) (maintaining 0.2% final DMSO concentration). For mouse LBAT, incubation mix was prepared by adding test inhibitor dilutions (3-fold serial dilution in DMSO, 10 points) in MEM-alpha (without FBS) containing 0.3 μM 3H-taurocholic acid and 25 μM cold taurocholic acid maintaining 0.2% final DMSO concentration).
50 μL of incubation mix containing test inhibitors was then added to the wells (in duplicate) and the plates were incubated for 20 minutes in a CO2 incubator at 37° C. After incubation, the reaction was stopped by keeping the plates on ice water mix for 2-3 minutes and then the incubation mix was aspirated completely from the wells. The wells were washed two times with 250 μL of chilled unlabelled 1 mM taurocholic acid dissolved in HEPES (Gibco 15630080)-buffered (10 mM) HBSS (Gibco 14175079) (pH 7.4). The plates were tapped against a paper towel after every wash to ensure maximum removal of blocking buffer.
100 μL of MicroScint-20 (PerkinElmer 6013621) was added to the wells and kept overnight at room temperature before reading the plates in TopCount NXT™ Microplate Scintillation and Luminescence Counter from PerkinElmer under 3H Test protocol (set at 120 seconds reading time per well, with normal plate orientation).
(§1) Preparation of Test Compound Dilutions
(§2) All test compounds were provided in powder form at room temperature. 10 mM DMSO stocks of the test compounds were prepared, aliquoted and stored at −20° C. From the 10 mM DMSO stock of the compounds, a 3-fold serial dilution in DMSO was prepared to get a total of 10 dilutions of the test compounds. 0.5 μL of this dilution in DMSO was added to 250 μL of FBS-free basal media containing 3H-taurocholic acid and cold taurocholic acid to prepare the incubation mixture.

Human IBAT = target: T2, Human IBAT (Homo sapiens, UniProt Q12908); assay: IBAT (h/m) assay, human IBAT-overexpressing cells, 3H-taurocholic acid uptake; assay type: cell-based; settings: 0.25 μM 3H-taurocholic acid and 5 μM cold taurocholic acid, 20 minutes, highest test concentration 10 μM, read-out: hIBAT IC50
T2 construct: expressed in transfected cells; kept under Puromycin selection
T2 sequence (Q12908 1-348): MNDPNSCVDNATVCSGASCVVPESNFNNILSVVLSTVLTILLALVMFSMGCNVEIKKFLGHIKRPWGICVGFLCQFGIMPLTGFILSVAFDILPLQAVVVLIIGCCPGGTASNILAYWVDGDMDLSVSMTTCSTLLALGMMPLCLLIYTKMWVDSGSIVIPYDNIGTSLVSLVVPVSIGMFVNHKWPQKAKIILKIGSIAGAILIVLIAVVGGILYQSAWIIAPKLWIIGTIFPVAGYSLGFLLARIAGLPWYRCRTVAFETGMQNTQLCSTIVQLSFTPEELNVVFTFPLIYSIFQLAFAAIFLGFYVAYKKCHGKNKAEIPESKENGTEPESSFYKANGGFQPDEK
Procedure: IBAT (h/m) Assay Protocol
10,000 cells (Human or Mouse IBAT-overexpressing cells) were seeded in 96-wells plate (Corning CLS3809) in 200 μL MEM-alpha medium (Gibco 12571-063) supplemented with 10% FBS (Gibco 10438026) containing Puromycin (Gibco A1113803) (10 μg/mL) and incubated at 37° C. in 5% CO2 for 48 hours. After incubation, media was decanted from the wells and cells were washed two times with 300 μL of basal MEM-alpha medium (FBS-free). After decanting basal MEM-alpha medium each time, plates were tapped against paper towel to ensure maximum removal of residual media. Test inhibitor dilutions (highest test concentration being 10 μM, 3-fold serial dilution, 10 points) prepared in DMSO (Sigma D2650) were added in incubation mix (maintaining 0.2% final DMSO concentration) containing 0.25 μM 3H-taurocholic acid (ARC ART-1368) and 5 μM of cold taurocholic acid (Sigma T4009). 50 μL of incubation mix containing test inhibitors was then added to the wells (in duplicate) and the plates were incubated for 20 minutes in a CO2 incubator at 37° C. After incubation, the reaction was stopped by keeping the plates on ice water mix for 2-3 minutes and then the incubation mix was aspirated completely from the wells. The wells were washed two times with 250 μL of chilled unlabelled 1 mM taurocholic acid dissolved in HEPES (Gibco 15630080)-buffered (10 mM) HBSS (Gibco 14175079) (pH 7.4). The plates were tapped against a paper towel after every wash to ensure maximum removal of blocking buffer.
100 μL of MicroScint-20 (PerkinElmer 6013621) was added to the wells and kept overnight at room temperature before reading the plates in TopCount NXT™ Microplate Scintillation and Luminescence Counter from PerkinElmer under 3H Test protocol (set at 120 seconds reading time per well).
as §1, §2

In the case of `CCCCC1CN(c2ccccc2)c2cc(SCC)c(OCC3(C(=O)O)CC3)cc2S(=O)(=O)N1C` (single isomer, unassigned) [8, enantiomer 2], the IC50 (Human LBAT) is reported as 591 nM and the IC50 (Human IBAT) is reported as 4970 nM.

Compound `CCCCC1CN(c2ccccc2)c2cc(SC)c(OCCC(=O)O)cc2S(=O)(=O)C1` (stereo not drawn) [Example 25, 3-((3-butyl-7-(methylthio)-1,1-dioxido-5-phenyl-2,3,4,5-tetrahydro-1,5-benzothiazepin-8-yl)oxy)propanoic acid] has an IC50 (Human LBAT) of 93 nM.

In the case of `CCCCC1CN(c2ccc(F)cc2)c2cc(SCC)c(OCC3(C(=O)O)CC3)cc2S(=O)(=O)N1` (single isomer, unassigned) [19, enantiomer 2], the IC50 (Human LBAT) is reported as 106 nM and the IC50 (Human IBAT) is reported as greater than 3330 nM.

`CCCCC1CN(c2ccccc2)c2cc(SCC)c(OCC3(C(=O)O)CC3)cc2S(=O)(=O)N1` (stereo not drawn) [Example 15, 1-(((3-butyl-7-(ethylthio)-1,1-dioxido-5-phenyl-2,3,4,5-tetrahydro-1,2,5-benzothiadiazepin-8-yl)oxy)methyl)cyclopropane-1-carboxylic acid] was tested, and the IC50 (Human LBAT) was 4.2 nM and the IC50 (Human IBAT) was greater than 3330 nM.

For `CCCCC1CN(c2ccc(F)cc2)c2cc(SC)c(OCC3(C(=O)O)CC3)cc2S(=O)(=O)C1` (stereo not drawn) [Example 10, 1-(((3-butyl-5-(4-fluorophenyl)-7-(methylthio)-1,1-dioxido-2,3,4,5-tetrahydro-1,5-benzothiazepin-8-yl)oxy)methyl)cyclopropane-1-carboxylic acid], the IC50 (Human LBAT) was 10 nM and the IC50 (Human IBAT) was 678 nM.

In the case of `CCCCC1CN(c2ccccc2)c2cc(SC)c(OCC(OC)C(=O)O)cc2S(=O)(=O)N1C` (single isomer, unassigned) [31, stereoisomer 2], the IC50 (Human LBAT) is reported as 22 nM and the IC50 (Human IBAT) is reported as 2090 nM.

Work on `CCCCC1CN(c2ccccc2)c2cc(SC)c(OCC(OC)C(=O)O)cc2S(=O)(=O)N1C` (single isomer, unassigned) [32, diastereomer 2] yielded an IC50 (Human LBAT) of 32 nM and an IC50 (Human IBAT) of 4780 nM.

For `CCCCC1CN(c2ccc(F)cc2)c2cc(SC)c(OCC3(C(=O)O)CC3)cc2S(=O)(=O)N1C` (stereo not drawn) [Example 11, 1-(((3-butyl-5-(4-fluorophenyl)-2-methyl-7-(methylthio)-1,1-dioxido-2,3,4,5-tetrahydro-1,2,5-benzothiadiazepin-8-yl)oxy)methyl)cyclopropane-1-carboxylic acid], the IC50 (Human LBAT) was 4.5 nM and the IC50 (Human IBAT) was 167 nM.

Work on `CCCCC1CN(c2ccccc2)c2cc(SC)c(OCC(OC)C(=O)O)cc2S(=O)(=O)N1C` (stereo not drawn) [Example 30, 3-((3-butyl-2-methyl-7-(methylthio)-1,1-dioxido-5-phenyl-2,3,4,5-tetrahydro-1,2,5-benzothiadiazepin-8-yl)oxy)-2-methoxypropanoic acid] yielded an IC50 (Human LBAT) of 64 nM.

Work on `CCCCC1CN(c2ccccc2)c2cc(SC)c(OCCC(=O)O)cc2S(=O)(=O)C1` (single isomer, unassigned) [26, enantiomer 1] yielded an IC50 (Human LBAT) of 59 nM.

`CCCCC1CN(c2ccccc2)c2cc(SCC)c(OCC(C)(C)C(=O)O)cc2S(=O)(=O)N1C` (single isomer, unassigned) [6, enantiomer 1] showed an IC50 (Human LBAT) of 536 nM.

Work on `CCCCC1CN(c2ccccc2)c2cc(SC)c(OCC(O)C(=O)O)cc2S(=O)(=O)C1` (stereo not drawn) [Example 28, 3-((3-butyl-7-(methylthio)-1,1-dioxido-5-phenyl-2,3,4,5-tetrahydro-1,5-benzothiazepin-8-yl)oxy)-2-hydroxypropanoic acid] yielded an IC50 (Human LBAT) of 187 nM.

In the case of `CCCCC1CN(c2ccccc2)c2cc(SC)c(OCC(OC)C(=O)O)cc2S(=O)(=O)N1C` (single isomer, unassigned) [31, stereoisomer 1], the IC50 (Human LBAT) is reported as 5680 nM.

`CCCCC1CN(c2ccccc2)c2cc(SC)c(OCC(C)(C)C(=O)O)cc2S(=O)(=O)N1C` (stereo not drawn) [Example 1, 3-((3-Butyl-2-methyl-7-(methylthio)-1,1-dioxido-5-phenyl-2,3,4,5-tetrahydro-1,2,5-benzothiadiazepin-8-yl)oxy)-2,2-dimethylpropanoic acid] showed an IC50 (Human LBAT) of 9.8 nM.

Reference: patent publication US12365658B2, “Benzothia(di)azepine compounds and their use as bile acid modulators” (Albireo AB, priority 2021, dated 2025)
